Source: the COVID Moonshot data (paper PMC11187573), “Identification of SARS-CoV-2 Mpro inhibitors through deep reinforcement learning for de novo drug design and computational chemistry approaches” (RSC Medicinal Chemistry, 2024)

Tests used:
[1] = target: SARS-CoV-2 Main Protease (SARS-CoV-2) (UniProt P0DTD1)
[2] = target: SARS-CoV-2 Main Protease (SARS-CoV-2) (UniProt P0DTD1); remark: listed apart in the source

O=C(Cc1cccc(Cl)c1)Nn1cnc2ccccc21
IC50 [1]: 4.27 µM
inhibition ([1]; 50.0 µM): 45.3%
relative solubility at 20 uM: 1
relative solubility at 100 uM: 1
inhibition ([2]; 20.0 µM): 74.2%
inhibition ([2]; 50.0 µM): 87.7%

C=CC(=O)N(c1ccc(C(F)(F)F)cc1)C(C(=O)NCCc1cccc(F)c1)c1cncc(C)c1 (stereo not given)
IC50 [1]: 7.72 µM
inhibition ([1]; 50.0 µM): 91.6%
relative solubility at 20 uM: 0.91
relative solubility at 100 uM: 0.73
inhibition ([2]; 20.0 µM): 38.8%
inhibition ([2]; 50.0 µM): 63%

O=C(Nc1cccnc1)c1cc(Cl)ccc1O
inhibition ([1]; 20.0 µM): 0%
relative solubility at 20 uM: 1
relative solubility at 100 uM: 0.89
inhibition ([2]; 20.0 µM): 18.3%
inhibition ([2]; 50.0 µM): 22.8%

C=CC(=O)N(c1ccc(C(C)(C)C)cc1)C(C(=O)NCCOC)c1cccnc1 (stereo not given)
inhibition ([1]; 20.0 µM): 25.7%
inhibition ([1]; 50.0 µM): 70.3%
relative solubility at 20 uM: 1
relative solubility at 100 uM: 1
inhibition ([2]; 20.0 µM): 35.7%
inhibition ([2]; 50.0 µM): 52.7%

O=C(CCl)N1CCC(C(=O)N2CCCCC2)CC1
inhibition ([1]; 20.0 µM): 0.506%
relative solubility at 20 uM: 1
relative solubility at 100 uM: 1
inhibition ([2]; 20.0 µM): 18.5%
inhibition ([2]; 50.0 µM): 31.4%

CC1(C)Cc2cccc(OCCNC(=O)c3cc(=O)[nH]c4cc(F)ccc34)c2O1
inhibition ([1]; 50.0 µM): 13.8%
relative solubility at 20 uM: 0.97
relative solubility at 100 uM: 0.97
inhibition ([2]; 20.0 µM): 36.7%
inhibition ([2]; 50.0 µM): 69.9%

O=C(NCc1cnccn1)c1sc2cccc(F)c2c1COc1ccccc1
inhibition ([1]; 20.0 µM): 0%
inhibition ([1]; 50.0 µM): -0.855%
relative solubility at 20 uM: 0.95
relative solubility at 100 uM: 0.44
inhibition ([2]; 20.0 µM): -1.73%
inhibition ([2]; 50.0 µM): 6.32%

CCOCC1CCN(c2ccc(S(N)(=O)=O)cc2)CC1
inhibition ([1]; 20.0 µM): 21.8%
inhibition ([1]; 50.0 µM): 44.6%
relative solubility at 20 uM: 1
relative solubility at 100 uM: 1
inhibition ([2]; 50.0 µM): 7.41%

CCOc1ccccc1OC1CCN(C(=O)c2cc(=O)[nH]c3ccc(F)cc23)C1 (stereo not given)
inhibition ([1]; 50.0 µM): 0%
relative solubility at 20 uM: 1
relative solubility at 100 uM: 0.99
inhibition ([2]; 20.0 µM): 6.76%
inhibition ([2]; 50.0 µM): 18.2%

CCCc1cc2c(cc1S(=O)(=O)N1CCN(c3ccccc3)CC1)OCO2
IC50 [1]: 16 µM
inhibition ([1]; 50.0 µM): 68.3%
relative solubility at 20 uM: 0.91
relative solubility at 100 uM: 0.92
inhibition ([2]; 20.0 µM): 8.44%
inhibition ([2]; 50.0 µM): -17.1%

Cc1ccncc1NC(=O)Cc1ccccc1
inhibition ([1]; 20.0 µM): -0.63%
inhibition ([1]; 50.0 µM): 16.1%
relative solubility at 20 uM: 1
relative solubility at 100 uM: 1
inhibition ([2]; 20.0 µM): 8.19%
inhibition ([2]; 50.0 µM): 19.5%

CNC(=O)OC1CCN(C(=O)c2ccccc2)CC1
inhibition ([1]; 20.0 µM): 0%
inhibition ([1]; 50.0 µM): 0%
relative solubility at 20 uM: 1
relative solubility at 100 uM: 1
inhibition ([2]; 50.0 µM): 19.2%

CC(NC(=O)c1ccccc1OCC(N)=O)c1cnn(C)c1 (stereo not given)
inhibition ([1]; 20.0 µM): 0%
inhibition ([1]; 50.0 µM): 0%
relative solubility at 20 uM: 1
relative solubility at 100 uM: 1
inhibition ([2]; 20.0 µM): -1.52%
inhibition ([2]; 50.0 µM): 2.68%

Cc1noc([C@@H](C)S(=O)(=O)Cc2cccc(C(F)(F)F)c2)n1 (stereo in doubt)
inhibition ([1]; 50.0 µM): 0%
relative solubility at 20 uM: 1.01
relative solubility at 100 uM: 1
inhibition ([2]; 20.0 µM): -7.05%
inhibition ([2]; 50.0 µM): -6.94%

C=CC(=O)N(c1ccc(C(C)(C)C)cc1)C(C(=O)NCCCC(=O)OCC)c1cccnc1 (stereo not given)
inhibition ([1]; 20.0 µM): 0%
inhibition ([1]; 50.0 µM): 14.6%
relative solubility at 20 uM: 0.99
relative solubility at 100 uM: 0.96
inhibition ([2]; 20.0 µM): 6.16%
inhibition ([2]; 50.0 µM): 30.9%

NS(=O)(=O)c1ccc(N2CCC(N3CCCCCC3)CC2)cc1
IC50 [1]: 15.8 µM
inhibition ([1]; 50.0 µM): 100%
relative solubility at 20 uM: 1
relative solubility at 100 uM: 1
inhibition ([2]; 20.0 µM): -1.25%
inhibition ([2]; 50.0 µM): 0.117%

NC1=Nc2nc3ccccc3n2C(c2ccc(-c3nc4ccccc4s3)o2)N1 (stereo not given)
inhibition ([1]; 50.0 µM): 38.8%
relative solubility at 20 uM: 0.53
relative solubility at 100 uM: 0.23
inhibition ([2]; 20.0 µM): -25.2%
inhibition ([2]; 50.0 µM): -3.34%

CC(CCc1ccccc1)N1CCN(C(=O)CCl)CC1 (stereo not given)
IC50 [1]: 13.6 µM
inhibition ([1]; 20.0 µM): 62.6%
inhibition ([1]; 50.0 µM): 91.1%
relative solubility at 20 uM: 1
relative solubility at 100 uM: 1
inhibition ([2]; 20.0 µM): 45%
inhibition ([2]; 50.0 µM): 60.7%

Cc1ccncc1NC(=O)C12CCC(CO1)C2 (stereo not given)
inhibition ([1]; 50.0 µM): 0%
relative solubility at 20 uM: 1.01
relative solubility at 100 uM: 1
inhibition ([2]; 20.0 µM): -5.84%
inhibition ([2]; 50.0 µM): 9.66%

O=C1Nc2cc(Br)ccc2C1=O
inhibition ([1]; 50.0 µM): 23.8%
relative solubility at 20 uM: 1
relative solubility at 100 uM: 1.01
inhibition ([2]; 20.0 µM): -5.86%
inhibition ([2]; 50.0 µM): -4.62%

Cc1cc(NC(=O)Cn2cncc2C)cc(C)c1Cl
inhibition ([1]; 50.0 µM): 25.8%
relative solubility at 20 uM: 1
relative solubility at 100 uM: 0.99
inhibition ([2]; 20.0 µM): 2.9%
inhibition ([2]; 50.0 µM): 4.88%

O=C(NCCNc1ccccc1)c1cc(=O)[nH]c2ccccc12
inhibition ([1]; 50.0 µM): 35.4%
relative solubility at 20 uM: 1
relative solubility at 100 uM: 0.98
inhibition ([2]; 20.0 µM): 32%
inhibition ([2]; 50.0 µM): 61.6%

C=CC(=O)N(c1ccc(C(C)(C)C)cc1)C(C(=O)NC(C)(C)C)c1cnccc1C (stereo not given)
inhibition ([1]; 20.0 µM): 0%
inhibition ([1]; 50.0 µM): 0%
relative solubility at 20 uM: 0.99
relative solubility at 100 uM: 1
inhibition ([2]; 20.0 µM): -14%
inhibition ([2]; 50.0 µM): -12.5%

O=C(NCc1noc2ccccc12)c1ccccc1OCC1CC1
inhibition ([1]; 20.0 µM): 0%
inhibition ([1]; 50.0 µM): 0%
relative solubility at 20 uM: 1
relative solubility at 100 uM: 0.64
inhibition ([2]; 20.0 µM): 5.31%
inhibition ([2]; 50.0 µM): 11.7%

C=CC(=O)N(c1ccc(C(C)C)nc1)C(C(=O)Nc1c(C)cccc1CC)c1cccnc1 (stereo not given)
inhibition ([1]; 20.0 µM): 0%
relative solubility at 20 uM: 1
relative solubility at 100 uM: 0.95
inhibition ([2]; 20.0 µM): 5.61%
inhibition ([2]; 50.0 µM): 12.5%

C=CC(=O)N(c1ccc(C(C)(C)C)cc1)C(C(=O)NCCSC)c1cccnc1 (stereo not given)
IC50 [1]: 65.4 µM
inhibition ([1]; 20.0 µM): 56%
inhibition ([1]; 50.0 µM): 63.9%
relative solubility at 20 uM: 1
relative solubility at 100 uM: 0.99
inhibition ([2]; 20.0 µM): 38.5%
inhibition ([2]; 50.0 µM): 68.9%

NS(=O)(=O)c1ccc(N2CCC(c3ccsc3)CC2)cc1
inhibition ([1]; 20.0 µM): 37.4%
inhibition ([1]; 50.0 µM): 42%
relative solubility at 20 uM: 0.98
relative solubility at 100 uM: 0.76
inhibition ([2]; 20.0 µM): 7.4%
inhibition ([2]; 50.0 µM): 17.1%

NS(=O)(=O)c1ccc(N2CCSCC2)cc1
inhibition ([1]; 20.0 µM): 29.1%
inhibition ([1]; 50.0 µM): 48.2%
relative solubility at 20 uM: 1
relative solubility at 100 uM: 1
inhibition ([2]; 50.0 µM): -25.9%

O=C(c1cc(=O)[nH]c2ccc(Cl)cc12)N1CCN(S(=O)(=O)c2ccccc2F)CC1
inhibition ([1]; 50.0 µM): 17.1%
relative solubility at 20 uM: 0.94
relative solubility at 100 uM: 0.91
inhibition ([2]; 20.0 µM): -7.48%
inhibition ([2]; 50.0 µM): 4.42%

Cc1cccc(NC2CCN(c3ccc(S(N)(=O)=O)cc3)CC2)c1
inhibition ([1]; 20.0 µM): 39.4%
inhibition ([1]; 50.0 µM): 45.9%
relative solubility at 20 uM: 0.96
relative solubility at 100 uM: 0.87
inhibition ([2]; 20.0 µM): -2.59%
inhibition ([2]; 50.0 µM): -0.838%

O=C(NC(Cc1ccccc1)C(=O)NCc1ccno1)OCc1ccccc1 (stereo not given)
inhibition ([1]; 20.0 µM): 0%
inhibition ([1]; 50.0 µM): 0%
relative solubility at 20 uM: 0.98
relative solubility at 100 uM: 0.85
inhibition ([2]; 50.0 µM): 50.6%

O=C(c1cc(=O)[nH]c2ccccc12)N1CCN(c2ccccc2F)CC1
inhibition ([1]; 50.0 µM): 46.4%
relative solubility at 20 uM: 0.98
relative solubility at 100 uM: 0.99
inhibition ([2]; 20.0 µM): 50.7%
inhibition ([2]; 50.0 µM): 75.6%

CCS(=O)(=O)N1CCC(C(=O)Nc2cc(Cl)ccc2O)CC1
inhibition ([1]; 50.0 µM): 0%
relative solubility at 20 uM: 1
relative solubility at 100 uM: 1
inhibition ([2]; 20.0 µM): -1.05%
inhibition ([2]; 50.0 µM): -2.7%

COc1ccccc1OCCNC(=O)c1cc(=O)[nH]c2ccccc12
IC50 [1]: 3.46 µM
inhibition ([1]; 20.0 µM): 70.1%
inhibition ([1]; 50.0 µM): 83.8%
relative solubility at 20 uM: 0.99
relative solubility at 100 uM: 0.96
IC50 [2]: 7.23 µM
inhibition ([2]; 20.0 µM): 83.7%
inhibition ([2]; 50.0 µM): 92.7%

O=C(Cc1cccnc1Br)Nc1cccc(OCCn2cncn2)c1
inhibition ([1]; 20.0 µM): 0%
inhibition ([1]; 50.0 µM): 0%
relative solubility at 20 uM: 1
relative solubility at 100 uM: 1
inhibition ([2]; 50.0 µM): -21.7%

O=C(Cc1cc(Cl)c2c(c1)OCCO2)Nc1cnccc1-c1ccccc1
inhibition ([1]; 50.0 µM): 0%
relative solubility at 20 uM: 0.88
relative solubility at 100 uM: 0.94
inhibition ([2]; 20.0 µM): -45.1%
inhibition ([2]; 50.0 µM): -10.4%

Cc1ccc(NC(=O)C(C#N)C(=O)CC(C)C)cc1 (stereo not given)
inhibition ([1]; 20.0 µM): 3.11%
inhibition ([1]; 50.0 µM): 0%
relative solubility at 20 uM: 0.99
relative solubility at 100 uM: 1
inhibition ([2]; 50.0 µM): 21.5%
